From patent US11279702B2, “AMPK activators” (Kallyope, Inc., priority 2020, dated 2022)

What was measured:
[1] = biological target: BCRP (Homo sapiens (Human), UniProt Q9UNQ0); test: in vitro; type: in vitro ADME
Experimental: Caco-2 cells purchased from ATCC were seeded onto […] (PET) in 96-well BD Insert plates at 1×10^5 cells/cm^2, and refreshed medium every 4-5 days until to the 21st to 28th day for confluent cell monolayer formation. The transport buffer in the study was HBSS with 10 mM HEPES at pH 7.40±0.05. Compounds were tested at 2 μM in the presence or absence of 30 μM novobiocin bi-directionally in duplicate. E3S was tested at 5 μM in the presence or absence of 30 μM novobiocin bi-directionally in duplicate, while nadolol and metoprolol were tested at 2 μM in the absence of novobiocin in A to B direction in duplicate. Final DMSO concentration was adjusted to less than 1%. The plate was incubated for 2 hours in CO2 incubator at 37+1° C., with 5% CO2 at saturated humidity without shaking. All samples were mixed with acetonitrile containing internal standard and were centrifuged at 4000 rpm for 10 min. Subsequently, 100 μL supernatant solution was diluted with 100 μL distilled water for LC/MS/MS analysis. Concentrations of test and control compounds in starting solution, donor solution, and receiver solution were quantified by LC/MS/MS, using peak area ratio of analyte/internal standard.

[2] = biological target: Recombinant AMPK α1/β1/γ1 complex (Homo sapiens (Human), UniProt Q13131+Q9Y478); test: In vitro pAMPK1 kinase activation assay (ADP-Glo, SAMS peptide); type: biochemical; settings: for EC50: AMPK α1/β1/γ1 pre-activated with CAMKK2, 12-point curve; for activation at 10 µM: relative to reference compound MK-8722
Sequence of Recombinant AMPK α1/β1/γ1 complex (Q13131 whole entry): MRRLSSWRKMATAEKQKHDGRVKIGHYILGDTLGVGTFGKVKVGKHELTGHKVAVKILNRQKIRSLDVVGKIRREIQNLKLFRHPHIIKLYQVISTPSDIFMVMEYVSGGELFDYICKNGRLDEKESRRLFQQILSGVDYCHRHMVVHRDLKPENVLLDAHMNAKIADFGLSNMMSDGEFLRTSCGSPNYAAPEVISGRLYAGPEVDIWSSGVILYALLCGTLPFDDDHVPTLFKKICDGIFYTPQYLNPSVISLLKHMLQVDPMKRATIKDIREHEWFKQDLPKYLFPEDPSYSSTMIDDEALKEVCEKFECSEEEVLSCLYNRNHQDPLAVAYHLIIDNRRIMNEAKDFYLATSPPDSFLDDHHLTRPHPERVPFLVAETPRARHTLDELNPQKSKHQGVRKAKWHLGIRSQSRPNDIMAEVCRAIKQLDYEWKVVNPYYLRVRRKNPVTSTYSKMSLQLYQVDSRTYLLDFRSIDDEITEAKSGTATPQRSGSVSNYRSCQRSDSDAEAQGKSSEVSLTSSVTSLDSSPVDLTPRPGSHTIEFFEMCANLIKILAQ
Sequence of Recombinant AMPK α1/β1/γ1 complex (Q9Y478 whole entry): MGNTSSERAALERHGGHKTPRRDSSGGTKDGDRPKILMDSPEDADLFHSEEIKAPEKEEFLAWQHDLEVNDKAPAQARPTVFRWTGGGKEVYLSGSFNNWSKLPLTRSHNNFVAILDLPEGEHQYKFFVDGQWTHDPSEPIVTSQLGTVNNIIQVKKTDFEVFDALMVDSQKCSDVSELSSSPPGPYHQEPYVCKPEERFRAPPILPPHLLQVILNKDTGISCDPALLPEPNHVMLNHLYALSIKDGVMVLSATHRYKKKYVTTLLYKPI
Sequence of Recombinant AMPK α1/β1/γ1 complex (P54619 whole entry partner): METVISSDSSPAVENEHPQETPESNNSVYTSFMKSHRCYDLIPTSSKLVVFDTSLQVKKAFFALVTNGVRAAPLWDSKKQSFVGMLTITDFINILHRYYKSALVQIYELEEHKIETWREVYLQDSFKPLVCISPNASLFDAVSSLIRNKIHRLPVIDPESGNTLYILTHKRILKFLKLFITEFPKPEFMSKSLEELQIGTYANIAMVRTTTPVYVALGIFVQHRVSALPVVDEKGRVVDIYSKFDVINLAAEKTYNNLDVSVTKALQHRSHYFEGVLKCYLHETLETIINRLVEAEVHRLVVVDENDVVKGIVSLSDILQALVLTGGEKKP
Experimental: Compound effect on AMPK enzyme activation was determined in a cell-free format with a 12-point concentration curve. The ADP-Glo detection system was used to determine phosphorylation of a SAMS peptide substrate. Recombinant AMPK α1/β1/γ1 complex was pre-activated by phosphorylation with CAMKK2 followed by incubated with compound for 15 minutes prior to the SAMS phosphorylation reaction. Activity curves and EC50 values were fitted by interpolation to an ATP:ADP standard curve as indicated by the ADP-Glo manufacturer using Prism software. Activity at 10 μM is reported relative to a reference compound, MK-8722 (Science 2017, 357(6350):507-511).

[3] = Pharmacokinetics (oral bioavailability, IV parameters); settings: mouse, in vivo; C57BL/6 mice, IV 1 mg/kg, PO 30 mg/kg
Experimental: Compounds were tested for pharmacokinetics in C57BL/6 mice. Compounds 2, 4, and A1 were dosed IV at 1 mg/kg as a formulation of 0.5 mg/mL in 5% DMSO+30% PEG400+65% water and PO at 30 mg/kg as a formulation of 6 mg/mL in 0.25% MC+5% Tween 80+0.02% SDS. Compound 1 was dosed IV at 1 mg/kg as a formulation of 0.50 mg/mL in 5% DMSO+30% PEG400+65% water and PO at 30 mg/kg as a formulation of 6 mg/mL in 0.5% MC+0.5% Tween 80.

[4] = test system: Acetyl CoA Carboxylase (ACC) Phosphorylation in Mouse Muscle; test: Level of ACC phosphorylation in mouse muscle; type: in vivo, C57BL/6J mice
Experimental: Systemic AMPK target engagement in vivo can be assessed by measuring the site-specific phosphorylation of a direct AMPK substrate, acetyl-coenzyme A carboxylase (ACC), in a well perfused tissue such as muscle.
Compounds were formulated in vehicle (0.25% methyl cellulose, 5% Tween 80, 0.02% sodium dodecyl sulfate (SDS) in Hanks' Buffered Salt Solution with Ca^2+ and Mg^2+). Male C57BL/6J mice were administered vehicle or compound once daily for 5 days. On the final day of dosing (day 1 for acute assessment, day 5 for sub-chronic assessment), mice were euthanized by cervical dislocation five hours post dose and samples of skeletal muscle (gastrocnemius) were removed and snap frozen in liquid nitrogen.
Frozen muscle tissues were homogenized. Homogenates were analyzed for protein concentration and equal amounts of protein were assayed for total and phosphorylated ACC (p-ACC) levels using Meso Scale Discovery's Multi-array assay kit. The ratio of p-ACC/total ACC was determined for each sample.

[5] = test system: Mouse In Vivo Chemotherapy-Induced Intestinal Injury Model; test: Diarrhea in chemotherapy (5FU)-induced intestinal injury model; parameters: species or system BALB/c mice; settings: 30 mg/kg BID
Experimental: Compounds were formulated in vehicle (0.25% methyl cellulose, 5% Tween 80, 0.02% sodium dodecyl sulfate (SDS) in Hanks' Buffered Salt Solution with Ca2+ and Mg2+). On day 1, either saline or a 400 mg/kg dose of 5-fluorouracil (5FU) in saline was administered by intraperitoneal injection to BALB/c mice. Starting on day 2, vehicle or compound was administered once or twice a day by oral gavage. In some instances, compound was also administered once or twice a day by oral gavage from day −3 to day −1 (pre-5FU). From days 5 to 6 post-5FU, the animals were scored for diarrhea severity once a day. The diarrhea was scored 0-3 as follows: 0—normal consistency (black and solid), 1—soft (black and a bit lighter/yellow), 2—loosely shaped stool (yellowish and somewhat watery), 3—extreme diarrhea (very watery). Day 5 and day 6 diarrhea scores following administration of certain compounds were lower than vehicle control mice. […] In addition, Compound 1 was efficacious at doses as low as 3 mg/kg BID (6 mg/kg total daily dose).

Sequence of BCRP (Q9UNQ0 whole entry): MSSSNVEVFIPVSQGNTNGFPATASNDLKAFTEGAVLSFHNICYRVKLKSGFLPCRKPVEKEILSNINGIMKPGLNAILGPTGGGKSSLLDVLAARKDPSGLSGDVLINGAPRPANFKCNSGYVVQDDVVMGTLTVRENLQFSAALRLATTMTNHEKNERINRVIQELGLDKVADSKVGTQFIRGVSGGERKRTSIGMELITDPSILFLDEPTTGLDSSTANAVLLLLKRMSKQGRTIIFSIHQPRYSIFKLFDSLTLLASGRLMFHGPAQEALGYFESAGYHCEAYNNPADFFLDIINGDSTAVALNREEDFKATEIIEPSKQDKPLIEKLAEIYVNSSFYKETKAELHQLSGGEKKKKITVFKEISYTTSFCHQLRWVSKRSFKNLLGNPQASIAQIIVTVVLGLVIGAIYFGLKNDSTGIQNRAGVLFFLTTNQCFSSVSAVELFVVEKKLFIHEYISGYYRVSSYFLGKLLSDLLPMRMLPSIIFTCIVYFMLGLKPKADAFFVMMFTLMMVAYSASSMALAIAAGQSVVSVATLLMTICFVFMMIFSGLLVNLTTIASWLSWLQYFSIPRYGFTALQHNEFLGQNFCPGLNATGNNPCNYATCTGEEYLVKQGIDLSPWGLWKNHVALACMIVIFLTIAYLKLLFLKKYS

Compound COCCc1ccc(OCC(O)CNC(C)C)cc1 (stereo not drawn) [metoprolol, reference compound] has a Papp A→B at 2 h, 2 μM ([1]; human, Caco-2, pH 7.4, Mean Papp (10^−6 cm/s) A to B) of 14.7 ×10⁻⁶ cm/s and a recovery at 2 h, 2 μM ([1]; human, Caco-2, pH 7.4, Mean Recovery (%) A to B) of 95.4%.
CCOP(=O)(O)CSc1nc2nc(-c3ccc(-c4ccccc4O)cc3)c(Cl)cc2[nH]1 [Compound 3, ethyl hydrogen (((6-chloro-5-(2′-hydroxy-[1,1′-biphenyl]-4-yl)-1H-imidazo[4,5-b]pyridin-2-yl)thio)methyl)phosphonate] showed an EC50 [2] of 2.38 nM and an activation at 10 µM [2] of 49%.
In the case of C[C@]12CC[C@@H]3c4ccc(OS(=O)(=O)O)cc4CC[C@H]3[C@@H]1CCC2=O [Compound E3S, reference compound], the “Efflux Ratio” value ([1]; Caco-2) is reported as 36.79, the “Mean Recovery (%) A to B” value ([1]; Caco-2) is reported as 76.60% and the “Mean Recovery (%) B to A” value ([1]; Caco-2) is reported as 98.34%.
With O=C(O)CSc1nc2nc(-c3ccc(-c4ccc(-n5cncn5)cc4O)cc3)c(Cl)cc2[nH]1 [Compound 9, 2-((6-chloro-5-(2′-hydroxy-4′-(1H-1,2,4-triazol-1-yl)-[1,1′-biphenyl]-4-yl)-1H-imidazo[4,5-b]pyridin-2-yl)thio)acetic Acid] the EC50 [2] was 1.1 nM and the activation at 10 µM [2] was 51%.
O=C(O)CSc1nc2nc(-c3ccc(N4CC[C@H](O)C4)cc3)c(Cl)cc2[nH]1 [Compound 7, (S)-2-((6-chloro-5-(4-(3-hydroxypyrrolidin-1-yl)phenyl)-1H-imidazo[4,5-b]pyridin-2-yl)thio)acetic Acid] gave an EC50 [2] of 43 nM and an activation at 10 µM [2] of 42%.
Compound CP(=O)(O)CSc1nc2nc(-c3ccc(-c4ccccc4O)cc3)c(Cl)cc2[nH]1 [Compound 2, (((6-chloro-5-(2′-hydroxy-[1,1′-biphenyl]-4-yl)-1H-imidazo[4,5-b]pyridin-2-yl)thio)methyl)(methyl)phosphinic Acid] has an EC50 [2] of 0.97 nM, an activation at 10 µM [2] of 47% and a bioavailability [3] of less than 1%.
For CC(C)(C)NCC(O)COc1cccc2c1CC(O)C(O)C2 (stereo not drawn) [nadolol, reference compound], the “Mean Papp (10^−6 cm/s) A to B” value ([1]; Caco-2) was 0.11 10^−6 cm/s and the “Mean Recovery (%) A to B” value ([1]; Caco-2) was 99.73%.
For CC(C)(C)CCc1ccc(-c2ccc(-c3nc4nc(SCC(=O)O)[nH]c4cc3Cl)cc2)c(O)c1 [Compound 6, 2-((6-chloro-5-(4′-(3,3-dimethylbutyl)-2′-hydroxy-[1,1′-biphenyl]-4-yl)-1H-imidazo[4,5-b]pyridin-2-yl)thio)acetic Acid], the EC50 [2] was 1120 nM and the activation at 10 µM [2] was 18%.
In the case of O[C@@H]1CO[C@H]2[C@@H]1OC[C@H]2Oc1nc2cc(Cl)c(-c3ccc(-c4ccccc4)cc3)cc2[nH]1 [MK-8722, reference compound], the “% p-ACC/ACC ratio change vs. Vehicle, Sub-chronic (5 days)” value ([4]; 30 mg/kg once daily for 5 days, five hours post dose, gastrocnemius) is reported as 259.0%, the “% p-ACC/ACC ratio change vs. Vehicle, Acute (5 hr)” value ([4]; 30 mg/kg, day 1, five hours post dose, gastrocnemius) is reported as 275.7% and the “ratio of pACC/total ACC compared with vehicle control mice” value ([4]; 30 mg/kg, one-way ANOVA vs vehicle (Dunnett's post-test)) is reported as “significantly higher”.
O=C(O)CSc1nc2nc(-c3ccc(-c4ccc(-n5cncn5)cc4)cc3)c(Cl)cc2[nH]1 [Compound 8, 2-((5-(4′-(1H-1,2,4-triazol-1-yl)-[1,1′-biphenyl]-4-yl)-6-chloro-1H-imidazo[4,5-b]pyridin-2-yl)thio)acetic Acid] showed an EC50 [2] of 20 nM and an activation at 10 µM [2] of 39%.
With O=P(O)(O)CSc1nc2nc(-c3ccc(-c4ccccc4O)cc3)c(Cl)cc2[nH]1 [Compound 4, (((6-chloro-5-(2′-hydroxy-[1,1′-biphenyl]-4-yl)-1H-imidazo[4,5-b]pyridin-2-yl)thio)methyl)phosphonic Acid] the EC50 [2] was 0.55 nM, the activation at 10 µM [2] was 28% and the bioavailability [3] was less than 1%. For the same compound, the “Diarrhea Score % Change vs. Vehicle” value ([5]; Day 5) was −58%, the “Diarrhea Score” value ([5]; Day 5, score 0-3) was 0.37 and the “Diarrhea Score % Change vs. Vehicle” value ([5]; Day 6) was −65%. The “Diarrhea Score” value ([5]; Day 6, score 0-3) was 0.63.
